Data on 10 compounds can be found in patent US10815275B2, “Antimicrobial peptoids with improved selectivity and use thereof” (priority 2018, dated 2020).

Molecules are shown by their SMILES. In brackets after ≈: the same amount, converted by molar mass. Non-standard residues stand in square brackets, D forms with d. Residues, ends and D or L forms follow the SMILES beside them. Nspe = C[C@H](NCC(=O)O)c1ccccc1; Nphe = O=C(O)CNCc1ccccc1; Nlys = NCCCCNCC(=O)O A value given as a limit tells only on which side of the number the result lay.

The test system of data set [1] is S. aureus strain KCTC1621. The data set is classed as cell-based. To be noted: for MBC S. aureus: KCTC1621; for MIC S. aureus: KCTC1621, 18 h. As for the experimental part: (§1) In order to measure antimicrobial activity of the peptoids, Gram-positive S. aureus strain KCTC1621, or Gram-negative E. coli strain ATCC25922 was treated with the peptoids prepared in Preparation Example 1, and minimum inhibitory concentrations were measured. Peptoid NOS. 1 and 2 are already known peptoids and were used for the purpose of making a comparison with novel peptoids in terms of antimicrobial activity.
(§2) Specifically, S. aureus strain KCTC1621 or E. coli strain ATCC25922 was inoculated into Mueller Hinton Broth (MHB2) liquid medium on which cations were adjusted, cultured at a temperature of 37° C. for 18 hours, and then subcultured for 4 hours. Thereafter, the strains were diluted with MHB2 liquid medium containing 0.2% bovine serum albumin and 0.01% acetic acid so that each bacterial number was 2×10^5 colony-forming units (CFU) per 1 mL, and dispensed into 96-well microtiter plates at 100 μL each. A peptoid stock which is 40-fold more concentrated than a concentration to be tested was added to each well at 2.5 μL or lower so that the peptoid stock was 2-fold serially diluted using sterile water. Thereafter, the plates were incubated at a temperature of 37° C. for 18 hours.
(§3) Thereafter, absorbance was measured at a wavelength of 600 nm using a microplate reader (Bio-Rad). The lowest peptoid concentration that completely suppresses growth of microorganisms was measured by a minimum inhibitory concentration (MIC) and a minimum bactericidal concentration (MBC), and the measurement results are shown in Table 5 below. Each of the MIC values was calculated as an average value of numerical values obtained through three independent experiments.

For another data set, the system named is E. coli strain ATCC25922. The data set is classed as cell-based. To be noted: for MBC E. coli: ATCC25922; for MIC E. coli: ATCC25922, 18 h. Here is the method: as §1, §2, §3
A further data set relates to red blood cells. The data set is described as follows: Hemolytic activity on red blood cells. The format is cell-based, mouse. As for the experimental part: In order to identify, through red blood cell hemolytic activity in mice, whether the peptoids synthesized in Preparation Example 1 are cytotoxic, red blood cells isolated from 10 mL of mouse blood were washed three times with phosphate-buffered saline (PBS, mixed solution of 35 mM phosphate buffer/150 mM NaCl, pH 7.4), and then centrifuged at a centrifugal force of 1,000 ×g for 10 minutes. A 10% (v/v) red blood cell solution diluted with PBS was dispensed into a 96-well microtiter plate at 150 μL each, and then a peptide solution was added at 50 μL each. Thereafter, the 96-well microtiter plate was incubated at a temperature of 37° C. for 1 hour.
The incubated 96-well microtiter plate was centrifuged at a centrifugal force of 1,000×g for 5 minutes. Thereafter, supernatant was taken at 100 μL each and transferred to a new 96-well microtiter plate. Then, absorbance at a wavelength of 540 nm was measured (Table 6).
In this case, a value obtained in a case of being treated with 0.1% (v/v) Triton X-100 was set as 100% hemolysis, and hemolytic activity (degree of cell destruction) of the peptoids was calculated using the following Equation 1. In the Equation 1, A is absorbance of the peptoid solution at a wavelength of 540 nm, B is absorbance of 0.1% Triton X-100 at a wavelength of 540 nm, and C is absorbance of the PBS solution at a wavelength of 540 nm. In this case, Peptoid NO. […] Degree of cell destruction (% hemolysis)=(A−C)/(B−C)[…] [Equation 1]
In Table 6, HD10 means a peptoid concentration which causes 10% hemolysis of red blood cells, and HD50 means a peptoid concentration which causes 50% hemolysis of red blood cells. In addition, Hmax is a hemolysis rate (%) at 200 μM which is the highest peptoid concentration used in the experiment.
Hemolytic activity of Peptoid NOS. 1, 18 to 23, and the peptide Pexiganan was measured in the same manner as in Experimental Example 2.

In the next data set the test system is E. coli. The data set is described as follows: Selectivity analysis, HD10 divided by MIC for E. coli. To be noted: HD10 of Table 6 divided by MIC for E. coli ATCC25922. As for the experimental part: In order to identify changes in selectivity depending on alteration of degree of folding in helical structure of peptoids, selectivity of each peptoid was calculated using the resultant values measured in the Experimental Examples 1 and 2. The selectivity was obtained by dividing the HD10 value by the minimum inhibitory concentration for E. coli (Table 8).

Turning to `C[C@@H](c1ccccc1)N(CC(N)=O)C(=O)CN(C(=O)CN(CCCCN)C(=O)CN(Cc1ccccc1)C(=O)CN(Cc1ccccc1)C(=O)CN(CCCCN)C(=O)CN(Cc1ccccc1)C(=O)CN(Cc1ccccc1)C(=O)CN(CCCCN)C(=O)CN(Cc1ccccc1)C(=O)CN(C(=O)CNCCCCN)[C@@H](C)c1ccccc1)[C@@H](C)c1ccccc1` [compound 14], in data set [1], the “MBC S. aureus” value worked out at 1.6 µM (≈ 2.8 µg/mL) and the “MIC S. aureus” value turned out to be 1.6 µM (≈ 2.8 µg/mL). Moreover, in the data set on E. coli strain ATCC25922, the “MBC E. coli” value is 12.5 µM (≈ 21.9 µg/mL) and the “MIC E. coli” value amounted to 12.5 µM (≈ 21.9 µg/mL). In the data set with red blood cells, the HD10 is given as 53.9 and the HD50 worked out at 199.6. Also, the “Selectivity [HD10/MIC (E. coli)]” value with E. coli was 4.3.
Take `C[C@@H](c1ccccc1)N(CC(=O)N(CCCCN)CC(=O)N(CC(=O)N(CC(=O)N(CCCCN)CC(=O)N(CC(=O)N(CC(N)=O)Cc1ccccc1)Cc1ccccc1)Cc1ccccc1)Cc1ccccc1)C(=O)CN(Cc1ccccc1)C(=O)CN(CCCCN)C(=O)CN(Cc1ccccc1)C(=O)CN(Cc1ccccc1)C(=O)CNCCCCN` [compound 6] (H-[Nlys][Nphe][Nphe][Nlys][Nphe][Nspe][Nlys][Nphe][Nphe][Nlys][Nphe][Nphe]-NH2): in data set [1], the “MBC S. aureus” value is 3.1 µM (≈ 5.34 µg/mL) and the “MIC S. aureus” value worked out at 3.1 µM (≈ 5.34 µg/mL). Moreover, in the data set on E. coli strain ATCC25922, the “MBC E. coli” value stood at 25 µM (≈ 43 µg/mL) and the “MIC E. coli” value is 12.5 µM (≈ 21.5 µg/mL). In the data set on red blood cells, the HD10 is reported as 101.4 and the HD50 came out at 185.4.
For `C[C@@H](c1ccccc1)N(CC(=O)N(CC(=O)N(CCCCN)CC(=O)N(CC(=O)N(CC(N)=O)Cc1ccccc1)Cc1ccccc1)Cc1ccccc1)C(=O)CN(CCCCN)C(=O)CN(Cc1ccccc1)C(=O)CN(Cc1ccccc1)C(=O)CN(CCCCN)C(=O)CN(Cc1ccccc1)C(=O)CN(Cc1ccccc1)C(=O)CNCCCCN` [compound 7] (H-[Nlys][Nphe][Nphe][Nlys][Nphe][Nphe][Nlys][Nspe][Nphe][Nlys][Nphe][Nphe]-NH2), in data set [1], the “MBC S. aureus” value was found to be 3.1 µM (≈ 5.34 µg/mL) and the “MIC S. aureus” value is 3.1 µM (≈ 5.34 µg/mL). In the data set with E. coli strain ATCC25922, the “MBC E. coli” value stood at 25 µM (≈ 43 µg/mL) and the “MIC E. coli” value was found to be 12.5 µM (≈ 21.5 µg/mL). Also, the HD50 with red blood cells is given as more than 200.
Regarding `C[C@@H](c1ccccc1)N(CC(=O)N(CCCCN)CC(=O)N(CC(=O)N(CC(=O)N(CCCCN)CC(=O)N(CC(=O)N(CC(N)=O)Cc1ccccc1)Cc1ccccc1)[C@@H](C)c1ccccc1)[C@@H](C)c1ccccc1)C(=O)CN(C(=O)CN(CCCCN)C(=O)CN(Cc1ccccc1)C(=O)CN(Cc1ccccc1)C(=O)CNCCCCN)[C@@H](C)c1ccccc1` [compound 16] (H-[Nlys][Nphe][Nphe][Nlys][Nspe][Nspe][Nlys][Nspe][Nspe][Nlys][Nphe][Nphe]-NH2), in data set [1], the “MBC S. aureus” value was determined as 3.1 µM (≈ 5.47 µg/mL) and the “MIC S. aureus” value amounted to 1.6 µM (≈ 2.82 µg/mL). Moreover, in the data set on E. coli strain ATCC25922, the “MBC E. coli” value came to 6.3 µM (≈ 11.1 µg/mL). For the same compound, in the data set with red blood cells, the HD10 is recorded as 53.0 and the HD50 is listed as more than 200.
For the compound `C[C@@H](c1ccccc1)N(CC(N)=O)C(=O)CN(Cc1ccccc1)C(=O)CN(CCCCN)C(=O)CN(Cc1ccccc1)C(=O)CN(Cc1ccccc1)C(=O)CN(CCCCN)C(=O)CN(Cc1ccccc1)C(=O)CN(Cc1ccccc1)C(=O)CN(CCCCN)C(=O)CN(Cc1ccccc1)C(=O)CN(C(=O)CNCCCCN)[C@@H](C)c1ccccc1` [compound 12], in data set [1], the “MBC S. aureus” value turned out to be 3.1 µM (≈ 5.38 µg/mL) and the “MIC S. aureus” value came to 3.1 µM (≈ 5.38 µg/mL). Further, in the data set with E. coli strain ATCC25922, the “MBC E. coli” value stood at 25 µM (≈ 43.4 µg/mL) and the “MIC E. coli” value amounted to 12.5 µM (≈ 21.7 µg/mL). For the same compound, in the data set with red blood cells, the HD10 came to 79.7 and the HD50 is given as more than 200. In the data set with E. coli, the “Selectivity [HD10/MIC (E. coli)]” value is recorded as 6.4.
In the case of `C[C@@H](c1ccccc1)N(CC(=O)N(CC(=O)N(CCCCN)CC(=O)N(CC(=O)N(CC(=O)N(CCCCN)CC(=O)N(CC(=O)N(CC(N)=O)Cc1ccccc1)Cc1ccccc1)Cc1ccccc1)Cc1ccccc1)Cc1ccccc1)C(=O)CN(CCCCN)C(=O)CN(Cc1ccccc1)C(=O)CN(Cc1ccccc1)C(=O)CNCCCCN` [compound 5] (H-[Nlys][Nphe][Nphe][Nlys][Nspe][Nphe][Nlys][Nphe][Nphe][Nlys][Nphe][Nphe]-NH2), in data set [1], the “MBC S. aureus” value worked out at 3.1 µM (≈ 5.34 µg/mL) and the “MIC S. aureus” value was found to be 3.1 µM (≈ 5.34 µg/mL). In addition, in the data set on E. coli strain ATCC25922, the “MBC E. coli” value worked out at 12.5 µM (≈ 21.5 µg/mL) and the “MIC E. coli” value worked out at 12.5 µM (≈ 21.5 µg/mL). In addition, in the data set with red blood cells, the HD50 was found to be 195.0.
Regarding `C[C@@H](c1ccccc1)N(CC(=O)N(CC(N)=O)Cc1ccccc1)C(=O)CN(CCCCN)C(=O)CN(Cc1ccccc1)C(=O)CN(Cc1ccccc1)C(=O)CN(CCCCN)C(=O)CN(Cc1ccccc1)C(=O)CN(Cc1ccccc1)C(=O)CN(CCCCN)C(=O)CN(Cc1ccccc1)C(=O)CN(Cc1ccccc1)C(=O)CNCCCCN` [compound 9] (H-[Nlys][Nphe][Nphe][Nlys][Nphe][Nphe][Nlys][Nphe][Nphe][Nlys][Nspe][Nphe]-NH2), in data set [1], the “MBC S. aureus” value was determined as 3.1 µM (≈ 5.34 µg/mL) and the “MIC S. aureus” value is 3.1 µM (≈ 5.34 µg/mL). Moreover, in the data set with E. coli strain ATCC25922, the “MBC E. coli” value is 25 µM (≈ 43 µg/mL) and the “MIC E. coli” value was 12.5 µM (≈ 21.5 µg/mL). In the data set on red blood cells, this compound gave an HD10 of 54.4 and an HD50 of more than 200. The “Selectivity [HD10/MIC (E. coli)]” value in the data set on E. coli is listed as 4.3.
With `C[C@@H](c1ccccc1)N(CC(=O)N(CCCCN)CC(=O)N(CC(=O)N(CC(N)=O)Cc1ccccc1)Cc1ccccc1)C(=O)CN(Cc1ccccc1)C(=O)CN(CCCCN)C(=O)CN(Cc1ccccc1)C(=O)CN(Cc1ccccc1)C(=O)CN(CCCCN)C(=O)CN(Cc1ccccc1)C(=O)CN(Cc1ccccc1)C(=O)CNCCCCN` [compound 8] (H-[Nlys][Nphe][Nphe][Nlys][Nphe][Nphe][Nlys][Nphe][Nspe][Nlys][Nphe][Nphe]-NH2), in data set [1], the “MBC S. aureus” value worked out at 3.1 µM (≈ 5.34 µg/mL) and the “MIC S. aureus” value came out at 3.1 µM (≈ 5.34 µg/mL). Moreover, in the data set on E. coli strain ATCC25922, the “MBC E. coli” value is 25 µM (≈ 43 µg/mL) and the “MIC E. coli” value came out at 12.5 µM (≈ 21.5 µg/mL). In the data set on red blood cells, this compound registered an HD10 of 88.5 and an HD50 of more than 200. Moreover, in the data set with E. coli, the “Selectivity [HD10/MIC (E. coli)]” value was 7.1.
Consider `C[C@@H](c1ccccc1)N(CC(N)=O)C(=O)CN(Cc1ccccc1)C(=O)CN(CCCCN)C(=O)CN(Cc1ccccc1)C(=O)CN(Cc1ccccc1)C(=O)CN(CCCCN)C(=O)CN(Cc1ccccc1)C(=O)CN(Cc1ccccc1)C(=O)CN(CCCCN)C(=O)CN(Cc1ccccc1)C(=O)CN(Cc1ccccc1)C(=O)CNCCCCN` [compound 10], for which, in data set [1], the “MBC S. aureus” value worked out at 3.1 µM (≈ 5.34 µg/mL) and the “MIC S. aureus” value was determined as 3.1 µM (≈ 5.34 µg/mL). Further, in the data set on E. coli strain ATCC25922, the “MBC E. coli” value worked out at 25 µM (≈ 43 µg/mL) and the “MIC E. coli” value stood at 12.5 µM (≈ 21.5 µg/mL). For the same compound, in the data set with red blood cells, the HD10 was 103.3 and the HD50 is listed as more than 200.
For `C[C@@H](c1ccccc1)N(CC(=O)N(CC(=O)N(CCCCN)CC(=O)N(CC(=O)N(CC(=O)N(CCCCN)CC(=O)N(CC(=O)N(CC(=O)N(CCCCN)CC(=O)N(CC(=O)N(CC(N)=O)Cc1ccccc1)Cc1ccccc1)Cc1ccccc1)Cc1ccccc1)Cc1ccccc1)Cc1ccccc1)Cc1ccccc1)C(=O)CNCCCCN` [compound 3] (H-[Nlys][Nspe][Nphe][Nlys][Nphe][Nphe][Nlys][Nphe][Nphe][Nlys][Nphe][Nphe]-NH2), in data set [1], the “MBC S. aureus” value was found to be 3.1 µM (≈ 5.34 µg/mL) and the “MIC S. aureus” value worked out at 3.1 µM (≈ 5.34 µg/mL). Moreover, in the data set with E. coli strain ATCC25922, the “MBC E. coli” value came out at 25 µM (≈ 43 µg/mL) and the “MIC E. coli” value came out at 25 µM (≈ 43 µg/mL). In the data set with red blood cells, the HD10 turned out to be 112.7 and the HD50 was more than 200. Further, in the data set on E. coli, the “Selectivity [HD10/MIC (E. coli)]” value came out at 4.5.
